Laboratory results as given in patent US20170334899A1, “AMINO-SUBSTITUTED ISOTHIAZOLES” (Bayer Pharma Aktiengesellschaft, priority 2014, published 2017).
Structures can show the parent of a compound that is named as a salt.

Target: T1, CDK2/CycE (Homo sapiens, UniProt P24941)
T1 construct: GST; purchased ProQinase GmbH (Freiburg, Germany); host or cells: insect cells (Sf9)
Test: CDK2/CycE kinase assay (TR-FRET)
Assay type: biochemical
Conditions: avg, read-out: CDK2 avg (IC50 [mol/l])
Description: CDK2/CycE -inhibitory activity of compounds of the present invention was quantified employing the CDK2/CycE TR-FRET assay as described in the following paragraphs.
Recombinant fusion proteins of GST and human CDK2 and of GST and human CycE, expressed in insect cells (Sf9) and purified by Glutathion-Sepharose affinity chromatography, were purchased from ProQinase GmbH (Freiburg, Germany). As substrate for the kinase reaction biotinylated peptide biotin-Ttds-YISPLKSPYKISEG (C-terminus in amid form) was used which can be purchased e.g. form the company JERINI peptide technologies (Berlin, Germany).
For the assay 50 nl of a 100fold concentrated solution of the test compound in DMSO was pipetted into a black low volume 384we11 microtiter plate (Greiner Bio-One, Frickenhausen, Germany), 2 μl of a solution of CDK2/CycE in aqueous assay buffer [50 mM Tris/HCl pH 8.0, 10 mM MgCl2, 1.0 mM dithiothreitol, 0.1 mM sodium ortho-vanadate, 0.01% (v/v) Nonidet-P40 (Sigma)] were added and the mixture was incubated for 15 min at 22° C. to allow pre-binding of the test compounds to the enzyme before the start of the kinase reaction. Then the kinase reaction was started by the addition of 3 μl of a solution of adenosine-tri-phosphate (ATP, 16.7 μM=>final conc. in the 5 μl assay volume is 10 μM) and substrate (1.25 μM=>final conc. in the 5 μl assay volume is 0.75 μM) in assay buffer and the resulting mixture was incubated for a reaction time of 25 min at 22° C. The concentration of CDK2/CycE was adjusted depending of the activity of the enzyme lot and was chosen appropriate to have the assay in the linear range, typical concentrations were in the range of 130 ng/ml. The reaction was stopped by the addition of 5 μl of a solution of TR-FRET detection reagents (0.2 μM streptavidine-XL665 [Cisbio Bioassays, Codolet, France] and 1 nM anti-RB(pSer807/pSer811)-antibody from BD Pharmingen [#558389] and 1.2 nM LANCE EU-W1024 labeled anti-mouse IgG antibody [Perkin-Elmer, product no. AD0077, as an alternative a Terbium-cryptate-labeled anti-mouse IgG antibody from Cisbio Bioassays can be used]) in an aqueous EDTA-solution (100 mM EDTA, 0.2% (w/v) bovine serum albumin in 100 mM HEPES/NaOH pH 7.0).
The resulting mixture was incubated 1 h at 22° C. to allow the formation of complex between the phosphorylated biotinylated peptide and the detection reagents. Subsequently the amount of phosphorylated substrate was evaluated by measurement of the resonance energy transfer from the Eu-chelate to the streptavidine-XL. Therefore, the fluorescence emissions at 620 nm and 665 nm after excitation at 350 nm was measured in a TR-FRET reader, e.g. a Rubystar (BMG Labtechnologies, Offenburg, Germany) or a Viewlux (Perkin-Elmer). The ratio of the emissions at 665 nm and at […] was taken as the measure for the amount of phosphorylated substrate. The data were normalised (enzyme reaction without inhibitor=0% inhibition, all other assay components but no enzyme=100% inhibition).

IC50, > 20 µM:
Cc1nsc(Nc2cnc(C(F)(F)F)cn2)c1C(=O)Nc1ccc(OC[C@H]2CCN(CC(F)(F)F)C2)nc1 (racemic) [Example 133, 3-Methyl-N-(6-{[(SR)-1-(2,2,2-trifluoroethyl)pyrrolidin-3-yl]methoxy}pyridin-3-yl)-5-{[5-(trifluoromethyl)pyrazin-2-yl]amino}-1,2-thiazole-4-carboxamide]
Cc1nsc(Nc2cnc(C(F)(F)F)cn2)c1C(=O)Nc1ccc(OC[C@@H]2CCN(CCC(F)(F)F)C2)nc1 [Example 129, 3-Methyl-5-{[5-(trifluoromethyl)pyrazin-2-yl]amino}-N-(6-{[(3R)-1-(3,3,3-trifluoropropyl)pyrrolidin-3-yl]methoxy}pyridin-3-yl)-1,2-thiazole-4-carboxamide]
Cc1nsc(Nc2cnc(C(F)(F)F)cn2)c1C(=O)Nc1ccc(O[C@@H]2CCN(CCC(F)(F)F)C[C@@H]2F)nc1 [Example 139, N-(6-{[(3S,4R)-3-fluoro-1-(3,3,3-trifluoropropyl)piperidin-4-yl]oxy}pyridin-3-yl)-3-methyl-5-{[5-(trifluoromethyl)pyrazin-2-yl]amino}-1,2-thiazole-4-carboxamide]
Cc1nsc(Nc2cnc(C(F)(F)F)cn2)c1C(=O)Nc1ccc(OC2CCN(CCF)CC2)c(F)c1 [Example 162, N-(3-fluoro-4-{[1-(2-fluoroethyl)piperidin-4-yl]oxy}phenyl)-3-methyl-5-{[5-(trifluoromethyl)pyrazin-2-yl]amino}-1,2-thiazole-4-carboxamide]
Cc1nsc(Nc2ccc(C#N)cn2)c1C(=O)Nc1ccc(N[C@@H](C)C(=O)OC(C)(C)C)nc1 [Example 170, tert-butyl N-{5-[({5-[(5-cyanopyridin-2-yl)amino]-3-methyl-1,2-thiazol-4-yl}carbonyl)amino]pyridin-2-yl}alaninate]
Cc1nsc(Nc2cnc(C(F)(F)F)cn2)c1C(=O)Nc1ccc(F)c(C(N)=O)c1 [Example 151, N-(3-carbamoyl-4-fluorophenyl)-3-methyl-5-{[5-(trifluoromethyl)pyrazin-2-yl]amino}-1,2-thiazole-4-carboxamide]
CCCCN1CC[C@@H](Oc2ccc(NC(=O)c3c(C)nsc3Nc3cnc(C(F)(F)F)cn3)cn2)[C@@H](F)C1 [Example 141, N-(6-{[(3S,4R)-1-butyl-3-fluoropiperidin-4-yl]oxy}pyridin-3-yl)-3-methyl-5-{[5-(trifluoromethyl)pyrazin-2-yl]amino}-1,2-thiazole-4-carboxamide]
Cc1nsc(Nc2cnc(C(F)(F)F)cn2)c1C(=O)Nc1ccc(OC[C@@H]2CCN(CC(F)F)C2)nc1 [Example 127, N-(6-{[(3R)-1-(2,2-difluoroethyl)pyrrolidin-3-yl]methoxy}pyridin-3-yl)-3-methyl-5-{[5-(trifluoromethyl)pyrazin-2-yl]amino}-1,2-thiazole-4-carboxamide]
Cc1nsc(Nc2cnc(C(F)(F)F)cn2)c1C(=O)Nc1ccc(OC[C@H]2CCN(CCC(F)(F)F)C2)nc1 [Example 134, 3-Methyl-5-{[5-(trifluoromethyl)pyrazin-2-yl]amino}-N-(6-{[(3S)-1-(3,3,3-trifluoropropyl)pyrrolidin-3-yl]methoxy}pyridin-3-yl)-1,2-thiazole-4-carboxamide]
COc1ccc(NC(=O)c2c(C)nsc2Nc2ccc(C#N)cn2)c(N2CCOCC2)n1 [Example 173, 5-[(5-cyanopyridin-2-yl)amino]-N-[6-methoxy-2-(morpholin-4-yl)pyridin-3-yl]-3-methyl-1,2-thiazole-4-carboxamide]
Cc1nsc(Nc2cnc3ccccc3n2)c1C(=O)Nc1ccc(C(=O)NCCN2CCCC(F)(F)C2)cc1 [Example 156, N-(4-{[2-(3,3-difluoropiperidin-1-yl)ethyl]carbamoyl}phenyl)-3-methyl-5-(quinoxalin-2-ylamino)-1,2-thiazole-4-carboxamide]
Cc1nsc(Nc2cnc(C(F)(F)F)cn2)c1C(=O)Nc1ccc(OC2CCN(CC(F)F)CC2)c(F)c1 [Example 164, N-(4-{[1-(2,2-difluoroethyl)piperidin-4-yl]oxy}-3-fluorophenyl)-3-methyl-5-{[5-(trifluoromethyl)pyrazin-2-yl]amino}-1,2-thiazole-4-carboxamide]
Cc1nsc(Nc2cnc(C(F)(F)F)cn2)c1C(=O)Nc1ccc(C(=O)NC2CCN(CC(F)(F)F)CC2)cc1 [Example 165, 3-methyl-N-(4-{[1-(2,2,2-trifluoroethyl)piperidin-4-yl]carbamoyl}phenyl)-5-{[5-(trifluoromethyl)pyrazin-2-yl]amino}-1,2-thiazole-4-carboxamide]
CC(=O)Nc1cc(NC(=O)c2c(C)nsc2Nc2ccc(C#N)cn2)ccc1F [Example 152, N-(3-acetamido-4-fluorophenyl)-5-[(5-cyanopyridin-2-yl)amino]-3-methyl-1,2-thiazole-4-carboxamide]
Cc1nsc(Nc2cnc3ccccc3n2)c1C(=O)Nc1ccc(C(=O)NC2CN(C(=O)OC(C)(C)C)CC(F)(F)C2)cc1 (stereo not drawn) [Example 158, tert-butyl 3,3-difluoro-5-{[4-({[3-methyl-5-(quinoxalin-2-ylamino)-1,2-thiazol-4-yl]carbonyl}amino)benzoyl]amino} piperidine-1-carboxylate]
Cc1nsc(Nc2cnc(C(F)(F)F)cn2)c1C(=O)Nc1ccc(O[C@@H]2CCN(CC(F)F)C[C@@H]2F)nc1 [Example 137, N-(6-{[(3S,4R)-1-(2,2-difluoroethyl)-3-fluoropiperidin-4-yl]oxy}pyridin-3-yl)-3-methyl-5-{[5-(trifluoromethyl)pyrazin-2-yl]amino}-1,2-thiazole-4-carboxamide]

IC50, ≥ 20 µM:
Cc1nsc(Nc2cnc3ccccc3n2)c1C(=O)Nc1cccc(C(=O)N[C@@H](CCC(N)=O)C(=O)O)c1 [Example 103, N^2-[3-({[3-Methyl-5-(quinoxalin-2-ylamino)-1,2-thiazol-4-yl]carbonyl}amino)-benzoyl]glutamine]
Cc1nsc(Nc2cnc3ccccc3n2)c1C(=O)Nc1cccc(C(=O)N2CCN(C)CC2)c1 [Example 102, 3-Methyl-N-{3-[(4-methylpiperazin-1-yl)carbonyl]phenyl}-5-(quinoxalin-2-ylamino)-1,2-thiazole-4-carboxamide]
Cc1nsc(Nc2cnc3ccccc3n2)c1C(=O)Nc1cccc(C(=O)NCC(=O)O)c1 [Example 99, N-[3-({[3-Methyl-5-(quinoxalin-2-ylamino)-1,2-thiazol-4-yl]carbonyl}amino)benzoy]-glycine]
CNS(=O)(=O)c1ccc(NC(=O)c2c(C)nsc2Nc2cnc3ccccc3n2)cc1 [Example 111, 3-Methyl-N-[4-(methylsulfannoyl)phenyl]-5-(quinoxalin-2-ylamino)-1,2-thiazole-4-carboxamide]
Cc1nsc(Nc2cnc(C(F)(F)F)cn2)c1C(=O)Nc1ccc(OC2CCN(CCC(F)(F)F)CC2)nc1 [Example 426, 3-Methyl-5-{[5-(trifluoromethyl)pyrazin-2-yl]amino}-N-(6-{[1-(3,3,3-trifluoro-propyl)piperidin-4-yl]oxy}pyridin-3-yl)-1,2-thiazole-4-carboxamide, Salt with Hydrochloric Acid]
CC(=O)N(C)CCOc1ccc(NC(=O)c2c(C)nsc2Nc2nc3c(C(F)(F)F)cccc3s2)cn1 [Example 112, N-(6-{2-[Acetyl(methyl)amino]-ethoxy}pyridin-3-yl)-3-methyl-5-{[4-(trifluoromethyl)-1,3-benzothiazol-2-yl]amino}-1,2-thiazole-4-carboxamide]
CCNS(=O)(=O)c1ccc(NC(=O)c2c(C)nsc2Nc2cnc3ccccc3n2)cc1 [Example 116, N-[4-(Ethylsulfamoyl)phenyl]-3-methyl-5-(quinoxalin-2-ylamino)-1,2-thiazole-4-carboxamide]
Cc1nsc(Nc2cnc(C(F)(F)F)cn2)c1C(=O)Nc1ccc(OC2CCNCC2)nc1 [Example 6, 3-Methyl-N-[6-(piperidin-4-yloxy)pyridin-3-yl]-5-{[5-(trifluoromethyl)pyrazin-2-yl]amino}-1,2-thiazole-4-carboxamide]
